Laboratory results taken from patent US20250282764A1, “IMIDAZOLE HETEROCYCLE BASED COMPOUNDS AND METHODS OF TREATING CANCER” (King Abdulaziz University, priority 2024, published 2025).
Entries after “also recorded” stand apart in the source; their conditions may differ.

What was measured:
DLD1 = test: Annexin V apoptosis assay (flow cytometry), DLD1; type: cell-based, human; settings: IC50 and 2×IC50, 48 h, vs basal conditions; dose dependent
Experimental: (§1) Apoptosis assay for colorectal carcinoma cell lines model was performed as follows. Cells were cultured in T25 culture flasks at a density of 3×10^5 cells for DLD-1, 4×10^5 cells for HCT116, and 5×10^5 cells for HT29 cells and treated with IC50 and 2×IC50 of compound (Id) for 48 h. The experiments were performed in triplicates. To measure apoptosis, an Annexin V APC staining assay (BD Biosciences, San Jose, CA, USA) was performed according to the manufacturer's recommendations, and 10,000 events were acquired using a FACSAria III flow cytometer (BD Biosciences, San Jose, CA, USA).

MV4-11 = test: Annexin V/7AAD apoptosis assay, MV4-11; type: cell-based, human; settings: approximately 2×IC50, 48 h
Experimental: (§2) Apoptosis assay for leukemia cells was performed as follows. Cells were cultured in 6-well plates at a density of 3× 10^5 cells per well and treated with approximately 2×IC50 values of compound (Id) for 48 h. The experiments were performed in duplicates. To measure apoptosis, Annexin V APC and 7AAD staining (BD Biosciences, San Jose, CA, USA) was performed according to the manufacturer's recommendations, and 10,000 events were acquired using a FACSCanto flow cytometer (BD Biosciences, San Jose, CA, USA).

K562 = test: Annexin V/7AAD apoptosis assay, K562; type: cell-based, human; settings: approximately 2×IC50, 48 h
Experimental: as §2

CYP2C9 = molecular target: T1, CYP2C9 (Homo sapiens, UniProt P11712); test: CYP450 2C9 inhibition; type: in vitro ADME; settings: recombinant CYP2C9 expressed in insect supersomes, probe 7-methoxy-4-(trifluoromethyl) coumarin, expressed enzyme, fluorescent substrate
T1 construct: purchased Fisher Scientific, Waltham, MA; host or cells: insect cells (supersomes)
Experimental: (§3) The compound (Id) was assessed for its ability to inhibit the three major human CYP450 enzymes, 3A4, 2D6 and 2C9. Assays were run in triplicate. Expressed enzymes in insect supersomes (Fisher Scientific, Waltham, MA) were used to minimize non-specific binding and membrane partitioning issues. The 3A4 assay uses testosterone as a substrate and analysis was performed by LC/MS/MS on a Waters Xevo TQ instrument as described above using positive electrospray ionization. Assay acceptance criteria was 20% for all standards and 25% for the LLOQ. The 2D6 and 2C9 assays use fluorescent substrates (3-[2-(N,N-diethylamino)ethyl]-7-methoxy-4-methylcoumarin for 2D6; 7-methoxy-4-(trifluoromethyl) coumarin for 2C9) and were analyzed on an Envision plate reader. GraphPad® Prism v 5.04 was used for nonlinear fitting of data to generate IC50 values.

KG1α = test: Annexin V/7AAD apoptosis assay, KG1α; type: cell-based, human; settings: approximately 2×IC50, 48 h
Experimental: as §2

HCT116 = test: Annexin V apoptosis assay (flow cytometry), HCT116; type: cell-based, human; settings: IC50 and 2×IC50, 48 h, vs basal conditions; dose dependent
Experimental: as §1

CYP2D6 = molecular target: T2, CYP2D6 (Homo sapiens, UniProt P10635); test: CYP450 2D6 inhibition; type: in vitro ADME; settings: recombinant CYP2D6 expressed in insect supersomes, probe 3-[2-(N,N-diethylamino)ethyl]-7-methoxy-4-methylcoumarin, expressed enzyme, fluorescent substrate
T2 construct: purchased Fisher Scientific, Waltham, MA; host or cells: insect cells (supersomes)
Experimental: as §3

HL60 = test: Annexin V/7AAD apoptosis assay, HL60; type: cell-based, human; settings: approximately 2×IC50, 48 h
Experimental: as §2

Kasumi-1 = test: Annexin V/7AAD apoptosis assay, Kasumi-1; type: cell-based, human; settings: approximately 2×IC50, 48 h
Experimental: as §2

HT29 = test: Annexin V apoptosis assay (flow cytometry), HT29; type: cell-based, human; settings: IC50 and 2×IC50, 48 h, vs basal conditions; dose dependent
Experimental: as §1

CYP3A4 = molecular target: T3, CYP3A4 (Homo sapiens, UniProt P08684); test: CYP450 3A4 inhibition; type: in vitro ADME; settings: recombinant CYP3A4 expressed in insect supersomes, probe testosterone, expressed enzyme, testosterone substrate
T3 construct: purchased Fisher Scientific, Waltham, MA; host or cells: insect cells (supersomes)
Experimental: as §3

NB4 = test: Annexin V/7AAD apoptosis assay, NB4; type: cell-based, human; settings: approximately 2×IC50, 48 h
Experimental: as §2

caspase-3 = settings: concentration of 1 μM; previous study; cited from earlier work
[1] = tested on: NB4, HL60, and KG1a leukemia cell lines; settings: previous study (Khayat et al.); range over three lines; cited from earlier work
[2] = previous study profiling; cited from earlier work
cell cycle = settings: concentration of 1 μM; previous study; cited from earlier work
HCT116 CRC cells = settings: previous study (Khayat et al.); cited from earlier work
MCF7 breast cancer = settings: previous study (Khayat et al.); cited from earlier work
PC3 prostate cancer = settings: previous study (Khayat et al.); cited from earlier work

T3 sequence (P08684 whole entry): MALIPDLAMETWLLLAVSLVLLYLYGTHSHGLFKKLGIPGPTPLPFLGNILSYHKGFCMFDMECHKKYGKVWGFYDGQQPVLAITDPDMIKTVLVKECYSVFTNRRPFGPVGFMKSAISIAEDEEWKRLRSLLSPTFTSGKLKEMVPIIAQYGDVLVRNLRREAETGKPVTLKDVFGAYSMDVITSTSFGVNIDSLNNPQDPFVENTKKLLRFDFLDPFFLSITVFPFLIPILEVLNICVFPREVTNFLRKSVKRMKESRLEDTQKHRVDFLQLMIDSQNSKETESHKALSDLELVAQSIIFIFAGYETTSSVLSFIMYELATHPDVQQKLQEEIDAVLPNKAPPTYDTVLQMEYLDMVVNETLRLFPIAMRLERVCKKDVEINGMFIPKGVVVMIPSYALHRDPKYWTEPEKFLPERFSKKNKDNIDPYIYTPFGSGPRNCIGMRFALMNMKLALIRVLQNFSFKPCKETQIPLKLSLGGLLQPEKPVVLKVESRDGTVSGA
T1 sequence (P11712 whole entry): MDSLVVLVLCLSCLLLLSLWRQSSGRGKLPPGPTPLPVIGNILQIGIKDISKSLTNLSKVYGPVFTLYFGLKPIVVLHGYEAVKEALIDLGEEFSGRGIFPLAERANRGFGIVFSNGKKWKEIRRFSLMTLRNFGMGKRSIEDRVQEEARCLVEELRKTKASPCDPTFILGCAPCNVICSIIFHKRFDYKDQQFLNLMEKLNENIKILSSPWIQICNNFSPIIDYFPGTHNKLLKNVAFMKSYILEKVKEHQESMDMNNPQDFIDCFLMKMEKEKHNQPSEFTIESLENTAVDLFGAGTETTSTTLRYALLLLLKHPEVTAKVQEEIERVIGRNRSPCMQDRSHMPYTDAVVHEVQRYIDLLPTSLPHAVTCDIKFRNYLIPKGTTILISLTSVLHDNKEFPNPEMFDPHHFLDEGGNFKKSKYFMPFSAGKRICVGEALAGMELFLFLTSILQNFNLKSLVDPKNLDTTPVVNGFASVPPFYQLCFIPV
T2 sequence (P10635 whole entry): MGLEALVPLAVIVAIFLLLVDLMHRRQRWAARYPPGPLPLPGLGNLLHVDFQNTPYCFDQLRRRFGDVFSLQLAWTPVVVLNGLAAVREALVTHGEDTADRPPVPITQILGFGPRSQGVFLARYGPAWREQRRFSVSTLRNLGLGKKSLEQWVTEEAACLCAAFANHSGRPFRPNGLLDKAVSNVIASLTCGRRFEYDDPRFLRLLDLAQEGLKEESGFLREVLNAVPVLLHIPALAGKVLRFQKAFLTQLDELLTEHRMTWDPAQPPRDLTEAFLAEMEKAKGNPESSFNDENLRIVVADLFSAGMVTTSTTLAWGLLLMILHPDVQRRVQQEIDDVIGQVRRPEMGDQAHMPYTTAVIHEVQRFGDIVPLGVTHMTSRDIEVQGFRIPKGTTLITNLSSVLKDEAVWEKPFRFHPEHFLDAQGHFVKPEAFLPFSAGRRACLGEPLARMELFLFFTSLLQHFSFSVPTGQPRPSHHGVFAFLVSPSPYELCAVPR

Compound | apoptosis in DLD1 cells (DLD1) | apoptosis in MV4-11 cells (MV4-11) | apoptosis in K562 cells (K562) | IC50 (CYP2C9) | apoptosis in KG1α cells (KG1α) | apoptosis in HCT116 cells (HCT116) | IC50 (CYP2D6) | apoptosis in HL60 cells (HL60) | apoptosis in Kasumi-1 cells (Kasumi-1) | apoptosis in HT29 cells (HT29) | IC50 (CYP3A4) | apoptosis in NB4 cells (NB4) | apoptosis (caspase-3) | IC50 [1] | maximum aqueous solubility [2] | effect on cell cycle (cell cycle) | IC50 (HCT116 CRC cells) | IC50 (MCF7 breast cancer) | IC50 (PC3 prostate cancer)
CC1=N/C(=C\c2ccc(C)o2)C(=O)N1c1ccc(CC(=O)NCc2ccccc2)cc1 [Compound (Id), 2-Methyl-4-(5-methyl-2-furyl)methylene-1-[4-(benzylaminocarbonylmethyl)phenyl]-5-oxo-1H-imidazole] | increased apoptosis | strong apoptosis | strong apoptosis | > 10 µM | strong apoptosis | increased apoptosis | > 10 µM | strong apoptosis | strong apoptosis; also recorded: very strong induction of apoptosis | increased apoptosis | > 10 µM | strong apoptosis | – | – | – | – | – | – | –
COc1ccc(/C=C2\N=C(C)N(c3ccc(CC(=O)NCc4ccccc4)cc3)C2=O)cc1 [KIM-161, reference compound] | – | – | – | – | – | – | – | – | – | – | – | – | promoted apoptosis through activation of caspase-3 | 0.275 to 0.893 µM | 19.9 µM | cell cycle arrest at pre-G and G2/M phases | 0.294 µM | 1.14 µM | 2.14 µM
